Results on nine compounds are retold here after patent US12365696B2, “Small-molecule focal adhesion kinase (FAK) inhibitors” (DANA-FARBER CANCER INSTITUTE, INC., priority 2019, dated 2025).

Test [1] concerns the target PTK2 (FAK) (Homo sapiens (Human), UniProt Q05397). Put plainly: Z′-LYTE kinase assay (SelectScreen Biochemical Kinase Profiling), enzymatic IC50. Particulars: enzymatic, Z′-LYTE; read-out: FAK IC50. The procedure:
Enzymatic IC50 data was obtained through ThermoFisher Scientific SelectScreen™ Biochemical Kinase Profiling Service, using a Z′-LYTE™ kinase-specific assay, as described below.
The test compounds were screened in 1% dimethyl sulfoxide (DMSO) (final) in the well. For 10 point titrations, 3-fold serial dilutions were conducted from the starting concentration.
All peptide/kinase mixtures were diluted to a 2× working concentration in the appropriate kinase buffer (see section kinase specific assay conditions for a complete description).
All ATP solutions were diluted to a 4× working concentration in kinase buffer (50 mM 4-(2-hydroxyethyl)-1-piperazineethanesulfonic acid (HEPES) pH 7.5, 0.01% BRIJ-35, 10 mM MgCl2, 1 mM ethylene glycol-bis(β-aminoethyl ether)-N,N,N′,N′-tetraacetic acid (EGTA)). ATP Km apparent was previously determined using a Z′-LYTE assay.
The development reagent was diluted in development buffer (see section kinase-specific assay conditions—direct and cascade for a complete description).
Using a bar-coded Corning, low volume NBS, black 384-well plate (Corning Cat. #4514), 100 nL of 100× test compound in 100% DMSO was added. […] The plate was then shaken for 30 seconds and held at room temperature for a 60 minute kinase reaction incubation period. At which point 5 μL of development reagent solution was added and the plate was shaken for 30 seconds. The plate was held again at room temperature for a 60 minute development reaction incubation period and then read on a fluorescence plate reader and analyzed.
The 2×PTK2 (FAK)/Tyr 07 mixture was prepared in 50 mM HEPES pH 7.5, 0.01% BRIJ-35, 10 mM MgCl2, 1 mM EGTA. […] After the 1 hour kinase reaction incubation period, 5 μL of a 1:16 dilution of development reagent B was added.
SelectScreen Kinase Profiling Service uses XLfit from ID Business Solutions (IDBS). The dose response curve was curve fit to model number 205 (sigmoidal dose-response model).

Test [2] concerns MDA-MB-231 cells. Put plainly: 2D-adherent monolayer cell viability (Cell Titer-Glo), 120 hrs. Type of test: cell-based. Particulars: Homo sapiens. How it is done: For 2D-adherent monolayer experiments, MDA-MB-231 cells were plated in 384-well format and allowed to adhere overnight. Cells were treated with indicated molecules from compound stock plates using a JANUS® Workstation pin tool for 120 hrs. To measure cell viability, Cell Titer-Glo® was added to wells for 15 minutes at room temperature and luminescence was measured on an EnVision™ 2104 Multilabel Plate Reader.
Inventive compound treatment (0.00063-20 μM) led to antiproliferative effects in MDA-MB-231 cells cultured as 2D-adherent monolayers or as ultra-low adherent 3D-spheroid suspensions (Table 5).
(In general: ATP-based viability assays read luminescence as a measure of living cells.)

In test [3] the test system is MDA-MB-231 cells. Put plainly: ultra-low adherent 3D-spheroid suspension cell viability (3D Cell Titer-Glo), 120 hours. Type of test: cell-based. The conditions noted are these: Homo sapiens. The procedure: For ultra-low adherent 3D-spheroid suspensions, MDA-MB-231 cells were plated in 384-well format in media containing 10% Matrigel® and allowed to form spheroids overnight. Cells were treated with indicated molecules from compound stock plates using a JANUS® Workstation pin tool for 120 hours. To measure cell viability, 3D Cell Titer-Glo® was added to wells for 15 minutes at room temperature and luminescence was measured on an EnVision™ 2104 Multilabel Plate Reader.

The structures appear in SMILES notation. pIC50: −log10 of the molar value.

Sequence of PTK2 (FAK) (Q05397 whole entry): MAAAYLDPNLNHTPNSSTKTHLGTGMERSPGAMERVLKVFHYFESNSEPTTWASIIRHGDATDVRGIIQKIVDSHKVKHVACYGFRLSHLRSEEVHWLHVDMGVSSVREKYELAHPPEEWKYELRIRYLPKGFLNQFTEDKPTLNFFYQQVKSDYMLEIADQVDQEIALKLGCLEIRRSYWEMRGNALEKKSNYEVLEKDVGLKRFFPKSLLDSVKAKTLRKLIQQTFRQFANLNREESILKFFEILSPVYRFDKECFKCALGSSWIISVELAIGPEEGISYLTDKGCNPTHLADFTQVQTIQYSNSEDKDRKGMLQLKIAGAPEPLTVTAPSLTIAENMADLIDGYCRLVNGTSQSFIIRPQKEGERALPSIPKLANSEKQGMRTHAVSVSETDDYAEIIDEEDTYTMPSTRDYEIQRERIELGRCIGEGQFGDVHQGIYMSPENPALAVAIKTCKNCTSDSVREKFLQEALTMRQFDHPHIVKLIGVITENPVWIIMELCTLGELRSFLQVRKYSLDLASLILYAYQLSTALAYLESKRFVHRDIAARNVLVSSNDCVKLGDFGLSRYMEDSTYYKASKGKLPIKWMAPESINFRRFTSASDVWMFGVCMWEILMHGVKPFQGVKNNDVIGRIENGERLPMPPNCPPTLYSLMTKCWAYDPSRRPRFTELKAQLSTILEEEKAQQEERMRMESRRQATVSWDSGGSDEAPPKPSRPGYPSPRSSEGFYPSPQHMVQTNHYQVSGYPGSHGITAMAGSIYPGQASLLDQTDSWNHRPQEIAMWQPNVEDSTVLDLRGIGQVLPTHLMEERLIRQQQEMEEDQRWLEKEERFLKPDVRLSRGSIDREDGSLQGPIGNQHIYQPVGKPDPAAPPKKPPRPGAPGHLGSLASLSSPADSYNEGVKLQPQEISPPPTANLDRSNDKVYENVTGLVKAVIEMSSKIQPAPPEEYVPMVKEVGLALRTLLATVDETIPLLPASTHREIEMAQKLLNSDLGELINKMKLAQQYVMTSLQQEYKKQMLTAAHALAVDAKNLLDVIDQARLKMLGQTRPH

As for `COc1cc(N2CCNCC2)ccc1Nc1ncc2c(n1)N(C)c1sc(C)nc1C(=O)N2C` [Compound 12, 6-((2-methoxy-4-(piperazin-1-yl)phenyl)amino)-2,4,9-trimethyl-4,9-dihydro-10H-pyrimido[5,4-b]thiazolo[5,4-e][1,4]diazepin-10-one], the figures for the pIC50 in test [1], in test [2] and in test [3] were 7.36, less than 5.00 and 5.60, respectively.

For `COc1cc(N2CCN(C)CC2)ccc1Nc1ncc2c(n1)N(C)c1sc(C)nc1C(=O)N2C` [Compound 14, 6-((2-methoxy-4-(4-methylpiperazin-1-yl)phenyl)amino)-2,4,9-trimethyl-4,9-dihydro-10H-pyrimido[5,4-b]thiazolo[5,4-e][1,4]diazepin-10-one], the pIC50 is 7.52 in test [1], less than 5.00 in test [2] and 5.64 in test [3].

Regarding `CCOc1cc(N2CCN(C)CC2)ccc1Nc1ncc2c(n1)N(C)c1sc(C)nc1C(=O)N2C` [Compound 16, 6-((2-ethoxy-4-(4-methylpiperazin-1-yl)phenyl)amino)-2,4,9-trimethyl-4,9-dihydro-10H-pyrimido[5,4-b]thiazolo[5,4-e][1,4]diazepin-10-one], the pIC50 in test [1] is 7.26; in test [2], less than 5.00; in test [3], 5.21.

As to `COc1cc(N2CCN(C)CC2)c(C)cc1Nc1ncc2c(n1)N(C)c1sc(C)nc1C(=O)N2C` [Compound 18, 6-((2-methoxy-5-methyl-4-(4-methylpiperazin-1-yl)phenyl)amino)-2,4,9-trimethyl-4,9-dihydro-10H-pyrimido[5,4-b]thiazolo[5,4-e][1,4]diazepin-10-one], the values for the pIC50 in test [1], in test [2] and in test [3] were 7.50, less than 5.00 and 5.11, respectively.

On to `COc1cc(C2CCN(C)CC2)ccc1Nc1ncc2c(n1)N(C)c1sc(C)nc1C(=O)N2C` [Compound 19, 6-((2-methoxy-4-(1-methylpiperidin-4-yl)phenyl)amino)-2,4,9-trimethyl-4,9-dihydro-10H-pyrimido[5,4-b]thiazolo[5,4-e][1,4]diazepin-10-one], for which the pIC50 in test [1] was 7.28; in test [2], 5.05; in test [3] it was 5.43.

As to `CCCOc1cc(N2CCN(C)CC2)ccc1Nc1ncc2c(n1)N(C)c1sc(C)nc1C(=O)N2C` [Compound 202, 2,4,9-trimethyl-6-((4-(4-methylpiperazin-1-yl)-2-propoxyphenyl)amino)-4,9-dihydro-10H-pyrimido[5,4-b]thiazolo[5,4-e][1,4]diazepin-10-one], in test [1], the pIC50 was 6.81.

For `COc1cc(N2CCC(N3CCN(C)CC3)CC2)ccc1Nc1ncc2c(n1)N(C)c1sc(C(C)C)nc1C(=O)N2C` [Compound 203, 2-isopropyl-6-((2-methoxy-4-(4-(4-methylpiperazin-1-yl)piperidin-1-yl)phenyl)amino)-4,9-dimethyl-4,9-dihydro-10H-pyrimido[5,4-b]thiazolo[5,4-e][1,4]diazepin-10-one], the pIC50 in test [1] was 7.23.

With `COc1cc(N2CCC(N3CCN(C)CC3)CC2)ccc1Nc1ncc2c(n1)N(CC(F)(F)F)c1sc(C)nc1C(=O)N2C` [Compound 204, 6-((2-methoxy-4-(4-(4-methylpiperazin-1-yl)piperidin-1-yl)phenyl)amino)-2,9-dimethyl-4-(2,2,2-trifluoroethyl)-4,9-dihydro-10H-pyrimido[5,4-b]thiazolo[5,4-e][1,4]diazepin-10-one], the negative logarithm of the IC50 (pIC50) in test [1] is 7.17.

As to `CCCN1c2nc(Nc3ccc(N4CCC(N5CCN(C)CC5)CC4)cc3OC)ncc2N(C)C(=O)c2nc(C)sc21` [Compound 205, 6-((2-methoxy-4-(4-(4-methylpiperazin-1-yl)piperidin-1-yl)phenyl)amino)-2,9-dimethyl-4-propyl-4,9-dihydro-10H-pyrimido[5,4-b]thiazolo[5,4-e][1,4]diazepin-10-one], in test [1], the negative logarithm of the IC50 (pIC50) is 7.33.

As usually defined, the pIC50 is the negative decadic logarithm of the IC50, by convention in mol/L.
